Assay results as given in PubChem BioAssay AID328 (DTP/NCI, 2004).
“And” between values parts separate entries of the source, which are not always exact repeats. Identical values can stand only once. Toxic doses and inconclusive results are not listed. The calls were made as follows: active = survival T/C of 150% or more; inactive = T/C below 125% in these data.

Tested on: BDF1 mice, P388 leukemia ip, median survival T/C
Assay: NCI In Vivo Anticancer Drug Screen. Data for tumor model P388 Leukemia (intraperitoneal) in B6D2F1 (BDF1) mice
Settings: endpoint: median survival time, higher = longer survival
Procedure, shortened: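 Transplantable tumour in mice; compound vs vehicle dosing; survival scored; ratio of treated to control reported.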

[1] = dose: 50.0 mg/kg/injection, schedule: Q01DX009 (ip), vehicle: saline with Tween-80
[2] = dose: 100.0 mg/kg/injection, schedule: Q04DX003 (ip), vehicle: Klucel (hydroxypropylcellulose) (HPC)
[3] = dose: 200.0 mg/kg/injection, schedule: Q04DX003 (ip), vehicle: Klucel (hydroxypropylcellulose) (HPC)
[4] = dose: 400.0 mg/kg/injection, schedule: Q04DX003 (ip), vehicle: Klucel (hydroxypropylcellulose) (HPC)
[5] = dose: 100.0 mg/kg/injection, schedule: Q01DX009 (ip), vehicle: saline with Tween-80
[6] = dose: 200.0 mg/kg/injection, schedule: Q01DX009 (ip), vehicle: saline with Tween-80
[7] = dose: 50.0 mg/kg/injection, schedule: Q01DX009 (ip), vehicle: Klucel (hydroxypropylcellulose) (HPC)
[8] = dose: 100.0 mg/kg/injection, schedule: Q01DX009 (ip), vehicle: Klucel (hydroxypropylcellulose) (HPC)
[9] = dose: 200.0 mg/kg/injection, schedule: Q01DX009 (ip), vehicle: Klucel (hydroxypropylcellulose) (HPC)
[10] = dose: 100.0 mg/kg/injection, schedule: Q04DX003 (ip), vehicle: saline with Tween-80

Measured: T/C

CCOC1=Cc2c(oc3c(C(C)(C)C)cc(OCC)cc23)OC(C(C)(C)C)=C1
inactive: dose: 3.12 mg/kg/injection, schedule: Q01DX009 (ip), vehicle: saline with Tween-80 112 % of control | dose: 6.25 mg/kg/injection, schedule: Q01DX009 (ip), vehicle: saline with Tween-80 122 % of control | dose: 12.5 mg/kg/injection, schedule: Q01DX009 (ip), vehicle: saline with Tween-80 122 % of control | dose: 25.0 mg/kg/injection, schedule: Q01DX009 (ip), vehicle: saline with Tween-80 100 % of control and 121 % of control | [1] 101 % of control

O=C1OC(c2ccc(Cl)cc2)=N/C1=C\c1ccccc1
inactive: dose: 100.0 mg/kg/injection, schedule: Q01DX001 (ip), vehicle: Klucel (hydroxypropylcellulose) (HPC) 95 % of control | [2] 86 % of control | dose: 200.0 mg/kg/injection, schedule: Q01DX001 (ip), vehicle: Klucel (hydroxypropylcellulose) (HPC) 95 % of control | [3] 90 % of control | dose: 400.0 mg/kg/injection, schedule: Q01DX001 (ip), vehicle: Klucel (hydroxypropylcellulose) (HPC) 100 % of control | [4] 95 % of control

Cc1ccc(C(O)(c2ccccc2)C2C(c3ccccc3)N2C2CCCCC2)cc1 (centres undefined)
inactive: dose: 50.0 mg/kg/injection, schedule: Q01DX001 (ip), vehicle: saline sonified 96 % of control | dose: 100.0 mg/kg/injection, schedule: Q01DX001 (ip), vehicle: saline sonified 96 % of control | dose: 200.0 mg/kg/injection, schedule: Q01DX001 (ip), vehicle: saline sonified 92 % of control

CC(=O)OCC(=O)[C@@]1(O)CC[C@H]2[C@@H]3CCC4=CC(=O)C=C[C@]4(C)[C@@]3(F)[C@@H](O)C[C@@]21C
inactive: dose: 12.5 mg/kg/injection, schedule: Q01DX009 (ip), vehicle: saline sonified 104 % of control | dose: 25.0 mg/kg/injection, schedule: Q01DX009 (ip), vehicle: saline sonified 109 % of control | dose: 50.0 mg/kg/injection, schedule: Q01DX009 (ip), vehicle: saline sonified 100 % of control

CCCCCC(=O)c1ccc(OCCCN2CCN(C(=O)OCC)CC2)cc1
inactive: [5] 105 % of control | [6] 104 % of control

Oc1ccc(C2CCCCC2)c(O)c1
inactive: [7] 100 % of control | dose: 50.0 mg/kg/injection, schedule: Q04DX003 (ip), vehicle: Klucel (hydroxypropylcellulose) (HPC) 91 % of control | [8] 104 % of control | [9] 100 % of control | [3] 91 % of control

CCSc1ncc(Br)c(Sc2nc(N)nc3nc[nH]c23)n1
inactive: [10] 86 % of control

O=C1c2ccccc2S(=O)(=O)c2cc(-c3nn[nH]n3)ccc21
inactive: [7] 106 % of control | [8] 94 % of control | [9] 104 % of control

NC1CC2C=CCC(C1)C2 (centres undefined)
inactive: dose: 37.5 mg/kg/injection, schedule: Q01DX001 (ip), vehicle: saline 95 % of control | dose: 75.0 mg/kg/injection, schedule: Q01DX001 (ip), vehicle: saline 100 % of control | dose: 150.0 mg/kg/injection, schedule: Q01DX001 (ip), vehicle: saline 100 % of control

CC1(C)CC(=O)C(C(=O)Nc2ccc(Cl)cc2)C(=O)C1
inactive: [1] 98 % of control | [5] 93 % of control | [6] 89 % of control

CC(=O)/C=C/c1ccco1
inactive: dose: 25.0 mg/kg/injection, schedule: Q01DX009 (ip), vehicle: DMSO 91 % of control | dose: 25.0 mg/kg/injection, schedule: Q04DX003 (ip), vehicle: DMSO 107 % of control | dose: 50.0 mg/kg/injection, schedule: Q01DX009 (ip), vehicle: DMSO 91 % of control | dose: 50.0 mg/kg/injection, schedule: Q04DX003 (ip), vehicle: DMSO 92 % of control

O=C1CCC(=O)N1CC(O)COc1ccc(Cl)cc1 (centres undefined)
inactive: [10] 100 % of control | dose: 200.0 mg/kg/injection, schedule: Q04DX003 (ip), vehicle: saline with Tween-80 95 % of control | dose: 400.0 mg/kg/injection, schedule: Q04DX003 (ip), vehicle: saline with Tween-80 100 % of control

O=C1CC=Nc2ccc([N+](=O)[O-])cc21
inactive: [2] 100 % of control | [3] 90 % of control | [4] 95 % of control
